Reference: PubChem BioAssay (NCI)
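Grown in 96-well plates, cells were treated for 48 hours with each compound at five concentrations. Insufficient inhibition: endpoint recorded as highest concentration tested. TGI: concentration producing complete growth inhibition.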

How the values were obtained:
Assay in all cases: inhibition of tumour cell growth, NCI panel, 48 h
786-0 renal = test system: 786-0 renal
A549 NSCLC = test system: A549 NSCLC
ACHN renal = test system: ACHN renal
BT-549 breast = test system: BT-549 breast
CAKI-1 renal = test system: CAKI-1 renal
CCRF-CEM leukemia = test system: CCRF-CEM leukemia
COLO 205 colon = test system: COLO 205 colon
DU-145 prostate = test system: DU-145 prostate
EKVX NSCLC = test system: EKVX NSCLC
HCC-2998 colon = test system: HCC-2998 colon
HCT-116 colon = test system: HCT-116 colon
HCT-15 colon = test system: HCT-15 colon
HL-60(TB) leukemia = test system: HL-60(TB) leukemia
HOP-62 NSCLC = test system: HOP-62 NSCLC
HS 578T breast = test system: HS 578T breast
HT29 colon = test system: HT29 colon
IGROV1 ovarian = test system: IGROV1 ovarian
K-562 leukemia = test system: K-562 leukemia
KM12 colon = test system: KM12 colon
LOX IMVI melanoma = test system: LOX IMVI melanoma
M14 melanoma = test system: M14 melanoma
MALME-3M melanoma = test system: MALME-3M melanoma
MCF7 breast = test system: MCF7 breast
MDA-MB-231 breast = test system: MDA-MB-231 breast
MDA-MB-435 = test system: MDA-MB-435
MDA-N = test system: MDA-N
MOLT-4 leukemia = test system: MOLT-4 leukemia
NCI-H226 lung = test system: NCI-H226 lung
NCI-H23 lung = test system: NCI-H23 lung
NCI-H460 lung = test system: NCI-H460 lung
NCI-H522 lung = test system: NCI-H522 lung
NCI/ADR-RES ovarian = test system: NCI/ADR-RES ovarian
OVCAR-3 ovarian = test system: OVCAR-3 ovarian
OVCAR-4 ovarian = test system: OVCAR-4 ovarian
OVCAR-5 ovarian = test system: OVCAR-5 ovarian
OVCAR-8 ovarian = test system: OVCAR-8 ovarian
PC-3 prostate = test system: PC-3 prostate
RXF 393 renal = test system: RXF 393 renal
SF-268 CNS = test system: SF-268 CNS
SF-295 CNS = test system: SF-295 CNS
SF-539 CNS = test system: SF-539 CNS
SK-MEL-2 melanoma = test system: SK-MEL-2 melanoma
SK-MEL-28 melanoma = test system: SK-MEL-28 melanoma
SK-MEL-5 melanoma = test system: SK-MEL-5 melanoma
SK-OV-3 ovarian = test system: SK-OV-3 ovarian
SN12C renal = test system: SN12C renal
SNB-19 CNS = test system: SNB-19 CNS
SNB-75 CNS = test system: SNB-75 CNS
SR leukemia = test system: SR leukemia
SW-620 colon = test system: SW-620 colon
T-47D breast = test system: T-47D breast
TK-10 renal = test system: TK-10 renal
U251 CNS = test system: U251 CNS
UACC-257 melanoma = test system: UACC-257 melanoma
UACC-62 melanoma = test system: UACC-62 melanoma
UO-31 renal = test system: UO-31 renal
A498 renal = test system: A498 renal
HOP-92 NSCLC = test system: HOP-92 NSCLC

CCSc1c(C)c2c(n(Cc3ccc(OC)cc3)c1=O)Cc1ccccc1C2
TGI (786-0 renal): 28.9 µM | TGI (A549 NSCLC): > 100 µM | TGI (ACHN renal): 84.2 µM | TGI (BT-549 breast): 93.4 µM | TGI (CAKI-1 renal): > 100 µM | TGI (CCRF-CEM leukemia): > 100 µM | TGI (COLO 205 colon): > 100 µM | TGI (DU-145 prostate): > 100 µM | TGI (EKVX NSCLC): 96.9 µM | TGI (HCC-2998 colon): 41.6 µM | TGI (HCT-116 colon): 32.5 µM | TGI (HCT-15 colon): > 100 µM | TGI (HL-60(TB) leukemia): 31.6 µM | TGI (HOP-62 NSCLC): > 100 µM | TGI (HS 578T breast): > 100 µM | TGI (HT29 colon): 72.2 µM | TGI (IGROV1 ovarian): 54.2 µM | TGI (K-562 leukemia): 60.9 µM | TGI (KM12 colon): > 100 µM | TGI (LOX IMVI melanoma): 76.2 µM | TGI (M14 melanoma): 27.3 µM | TGI (MALME-3M melanoma): 45.7 µM | TGI (MCF7 breast): > 100 µM | TGI (MDA-MB-231 breast): 94.7 µM | TGI (MDA-MB-435): > 100 µM | TGI (MDA-N): > 100 µM | TGI (MOLT-4 leukemia): 14.8 µM | TGI (NCI-H226 lung): > 100 µM | TGI (NCI-H23 lung): > 100 µM | TGI (NCI-H460 lung): 27.7 µM | TGI (NCI-H522 lung): 40.1 µM | TGI (NCI/ADR-RES ovarian): 74.5 µM | TGI (OVCAR-3 ovarian): > 100 µM | TGI (OVCAR-4 ovarian): > 100 µM | TGI (OVCAR-5 ovarian): > 100 µM | TGI (OVCAR-8 ovarian): > 100 µM | TGI (PC-3 prostate): 84.3 µM | TGI (RXF 393 renal): > 100 µM | TGI (SF-268 CNS): > 100 µM | TGI (SF-295 CNS): > 100 µM | TGI (SF-539 CNS): 80.1 µM | TGI (SK-MEL-2 melanoma): 66 µM | TGI (SK-MEL-28 melanoma): > 100 µM | TGI (SK-MEL-5 melanoma): 77.4 µM | TGI (SK-OV-3 ovarian): > 100 µM | TGI (SN12C renal): 46.5 µM | TGI (SNB-19 CNS): > 100 µM | TGI (SNB-75 CNS): > 100 µM | TGI (SR leukemia): 21.3 µM | TGI (SW-620 colon): 84 µM | TGI (T-47D breast): > 100 µM | TGI (TK-10 renal): 73.3 µM | TGI (U251 CNS): 82.4 µM | TGI (UACC-257 melanoma): 44.3 µM | TGI (UACC-62 melanoma): > 100 µM | TGI (UO-31 renal): > 100 µM

N#Cc1nc(CSCc2ccccc2)oc1N
TGI (786-0 renal): > 100 µM | TGI (A498 renal): > 100 µM | TGI (A549 NSCLC): > 100 µM | TGI (ACHN renal): > 100 µM | TGI (BT-549 breast): > 100 µM | TGI (CAKI-1 renal): > 100 µM | TGI (CCRF-CEM leukemia): > 100 µM | TGI (COLO 205 colon): > 100 µM | TGI (DU-145 prostate): > 100 µM | TGI (HCC-2998 colon): > 100 µM | TGI (HCT-116 colon): > 100 µM | TGI (HCT-15 colon): > 100 µM | TGI (HOP-62 NSCLC): > 100 µM | TGI (HOP-92 NSCLC): > 100 µM | TGI (HS 578T breast): > 100 µM | TGI (HT29 colon): > 100 µM | TGI (IGROV1 ovarian): > 100 µM | TGI (KM12 colon): > 100 µM | TGI (M14 melanoma): > 100 µM | TGI (MALME-3M melanoma): > 100 µM | TGI (MCF7 breast): > 100 µM | TGI (MDA-MB-231 breast): > 100 µM | TGI (MDA-MB-435): > 100 µM | TGI (MDA-N): > 100 µM | TGI (MOLT-4 leukemia): > 100 µM | TGI (NCI-H226 lung): > 100 µM | TGI (NCI-H23 lung): > 100 µM | TGI (NCI-H460 lung): > 100 µM | TGI (NCI-H522 lung): > 100 µM | TGI (NCI/ADR-RES ovarian): > 100 µM | TGI (OVCAR-3 ovarian): > 100 µM | TGI (OVCAR-4 ovarian): > 100 µM | TGI (OVCAR-5 ovarian): > 100 µM | TGI (OVCAR-8 ovarian): > 100 µM | TGI (PC-3 prostate): > 100 µM | TGI (RXF 393 renal): > 100 µM | TGI (SF-268 CNS): > 100 µM | TGI (SF-295 CNS): > 100 µM | TGI (SF-539 CNS): > 100 µM | TGI (SK-MEL-2 melanoma): > 100 µM | TGI (SK-MEL-28 melanoma): > 100 µM | TGI (SK-OV-3 ovarian): > 100 µM | TGI (SN12C renal): > 100 µM | TGI (SR leukemia): > 100 µM | TGI (SW-620 colon): > 100 µM | TGI (T-47D breast): > 100 µM | TGI (TK-10 renal): > 100 µM | TGI (U251 CNS): > 100 µM | TGI (UACC-257 melanoma): > 100 µM | TGI (UACC-62 melanoma): > 100 µM | TGI (UO-31 renal): > 100 µM
